Results reported in patent US5034311A, “Photographic elements containing release compounds I” (Eastman Kodak Company, priority 1990, dated 1991).

Experiment: Rate of tetrazole inhibitor release from timing group compounds in micellar solution (HPLC of free inhibitor and residual timing group compound)
Assay type: physicochemical
Settings: inhibitor release, pH 13.5, (+10%)
Method: Rates of tetrazole release were measured for several timing group compounds which are representative of fragments that are generated by reaction of a coupler of this invention with oxidized developer during photographic processing. These solution measurements are a useful indication of photographic performance. Lower values of inhibitor release half-lives in solution correlate with greater development inhibition effects in film.
For a given measurement, 12.5 μmol of the timing group compound was dissolved in 3.2 mL of reduced Triton X-100 surfactant plus one drop glacial acetic acid plus approximately 5 mL methylene chloride (to facilitate dissolution of the timing group compound in surfactant). After methylene chloride was evaporated under partial vacuum, water (approximately 15 mL) was added and the mixture was vigorously agitated with a vortex mixer to create micelles. This miscellar solution was then diluted to 25 mL with water and mixed again. Inhibitor release kinetics were initiated by mixing 2 mL of the above micellar solution with an equal volume of an aqueous potassium hydroxide solution (0.75 mol KOH/L), producing a reaction mixture with a pH of about 13.5. At intervals, portions of the reaction mixture were quenched by the addition of 1 mL 30% aqueous acetic acid. The quenched mixture was then analyzed by high performance liquid chromatography to determine the concentrations of free inhibitor and residual timing group compound. First-order reaction rate constants were calculated from these concentration versus time data, and the reaction half-life, t1/2, was calculated with the expression t1/2 =0.693/k, where k is the observed rate constant. […] In the following table -INH signifies the inhibitor of the structure

| Half-Life at pH 13.5 | SMILES |
| --- | --- |
| 100 sec | CCCCCCCOc1ccc(-c2nnn(C3c4ccc(O)cc4CCC3(C)C)n2)cc1 (stereo not drawn) |
| 30 sec | CCCCCCCOc1ccc(-c2nnn(C3CCc4cc(O)ccc43)n2)cc1 (stereo not drawn) |

Continued, compound first:

| SMILES | Half-Life at pH 13.5 |
| --- | --- |
| CCCCCCCOc1ccc(-c2nnn(C3CCCc4cc(O)ccc43)n2)cc1 (stereo not drawn) | 15 sec |
| CCCCCCCOc1ccc(-c2nnn(C3CCCCc4cc(O)ccc43)n2)cc1 (stereo not drawn) | 250 sec |
| CCCCCCCOc1ccc(-c2nnn(C3CCOc4cc(O)ccc43)n2)cc1 (stereo not drawn) | 9 sec |
| CCCCCCCOc1ccc(-c2nnn(Cc3ccc(O)cc3)n2)cc1 [reference compound] | 29,000 sec |
